Source: paper PMC10615754 (Molecular Psychiatry, 2023)

Columns and labels:
DAT = molecular target: T1, DAT (Mus musculus, UniProt Q61327); experiment: Competition binding of [3H]WIN35,428 to DAT in mouse striatal homogenates
T1 construct: from tissue; host or cells: striatum of male SERT+/- mice
Procedure: (§1) Thus, in the current experiments, male constitutive SERT+/- mice weighing 25-30g were used, 3 per assay. […] Mice were euthanized by cervical dislocation without use of anesthesia to prevent anesthetic-induced attenuation of transporter binding sites. Whole hippocampi or striatum were harvested and placed in 30 ml of ice-cold buffer specific to each assay.
(§2) Tissue Collection and Preparation: Mice were humanely euthanized by cervical dislocation and decapitated without anesthesia to collect fresh brain tissues without compromising transporter binding properties. Striatum from each mouse were placed in a round 50 ml polycarbonate tube (Nalge Nunc, Rochester, NY, USA) containing 30 mM sodium phosphate and 0.32 M sucrose for DAT binding as in Reith and Coffey^16. […] All tissues were homogenized at 26,000 RPM for 1 min with a Polytron tissue homogenizer (Brinkman Instruments, Westbury, NY, USA). […] The supernate was discarded, and the pellet re-suspended in 25 ml buffer on ice using a Potter Elvehjem 10 ml glass and teflon homogenizer. The homogenate was re-centrifuged for 10 min at 36,000 x g.
The final pellet was re-suspended in 30 mM sodium phosphate and 0.32 M sucrose pH 7.4 at 4°C, and binding assays were carried out in duplicate for 2 hours at 4°C.
Labeled homogenates were captured through filtration under vacuum onto glass fiber filters pre-soaked in 0.5% polyethyleneimine (Sigma) on a Brandel tissue harvester (Gaithersburg, MD). Filters were washed twice more with 4 ml of buffer.
(§3) Data Analysis: Binding data were analyzed using non-linear regression curve fitting with GraphPad Prism (La Jolla, CA, USA).

hOCT3 [1] = molecular target: T2, hOCT3 (Homo sapiens, UniProt O75751); experiment: Inhibition of [3H]MPP+ uptake into HEK293 cells stably expressing hOCT3; type: cell-based
T2 construct: expressed in transfected cells
T2 sequence (O75751 1-556): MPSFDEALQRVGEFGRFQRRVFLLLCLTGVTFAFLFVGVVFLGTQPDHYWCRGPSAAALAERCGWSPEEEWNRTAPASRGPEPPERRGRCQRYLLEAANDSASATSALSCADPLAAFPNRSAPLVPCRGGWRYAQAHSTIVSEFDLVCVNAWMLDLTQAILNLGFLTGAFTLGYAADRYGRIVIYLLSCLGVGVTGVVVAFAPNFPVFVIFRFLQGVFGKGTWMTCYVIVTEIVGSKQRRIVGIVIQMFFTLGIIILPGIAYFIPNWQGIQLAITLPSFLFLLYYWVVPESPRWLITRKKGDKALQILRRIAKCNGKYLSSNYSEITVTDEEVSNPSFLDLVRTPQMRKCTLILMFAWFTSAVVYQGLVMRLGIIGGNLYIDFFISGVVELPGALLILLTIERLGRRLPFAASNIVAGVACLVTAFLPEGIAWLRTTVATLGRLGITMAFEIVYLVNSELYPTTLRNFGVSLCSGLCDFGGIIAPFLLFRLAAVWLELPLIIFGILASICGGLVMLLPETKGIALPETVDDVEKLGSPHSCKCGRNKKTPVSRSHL
Procedure: Mechanically detached HEK293 cells grown to confluence in 4-5 ml flasks were suspended in 3-4 ml of media in a 15 ml polypropylene conical tube.
Cells were harvested on a Brandel 48 well harvester by vacuum filtration onto glass fiber filter strips (Brandel, Gaithersburg, MD, USA) pre-soaked in a 1% polyethalineamine saline solution. […] Protein concentration of the cell suspension was determined after solubilization in 1N NaOH against known concentrations of bovine serum albumen with Bradford reagent as for mouse brain homogenates.
Data Analysis: Experiments were performed in triplicate. Percent of total binding was calculated, and uptake kinetics determined with GraphPad Prism.

NET [2] = molecular target: T3, NET (Mus musculus, UniProt O55192); set-up: from tissue; host or cells: hippocampus of male SERT+/- mice; method as in earlier work; conditions: known Kd from prior studies, used to calculate Ki; ref 20 (SI); read-out: Kd of hot ligand at NET; cited from earlier work
T3 sequence (O55192 whole entry): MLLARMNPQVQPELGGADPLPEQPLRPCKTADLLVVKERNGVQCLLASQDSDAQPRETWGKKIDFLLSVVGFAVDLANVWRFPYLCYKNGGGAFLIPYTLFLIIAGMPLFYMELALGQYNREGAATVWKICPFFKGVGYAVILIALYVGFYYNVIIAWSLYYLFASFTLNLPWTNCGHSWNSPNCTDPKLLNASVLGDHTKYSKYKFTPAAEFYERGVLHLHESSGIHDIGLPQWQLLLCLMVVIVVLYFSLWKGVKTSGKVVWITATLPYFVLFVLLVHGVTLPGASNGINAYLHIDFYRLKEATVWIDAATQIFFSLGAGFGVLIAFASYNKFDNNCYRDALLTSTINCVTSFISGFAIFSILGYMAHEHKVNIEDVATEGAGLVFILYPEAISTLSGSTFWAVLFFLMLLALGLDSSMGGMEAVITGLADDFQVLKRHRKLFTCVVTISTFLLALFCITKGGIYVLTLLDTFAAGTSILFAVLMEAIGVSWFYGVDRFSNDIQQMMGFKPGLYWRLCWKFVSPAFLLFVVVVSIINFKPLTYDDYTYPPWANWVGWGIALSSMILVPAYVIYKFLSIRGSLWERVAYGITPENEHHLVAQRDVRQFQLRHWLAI

[3] = tested on: DA clearance in dorsal striatum; experiment: In vivo high-speed chronoamperometry of DA clearance in dorsal striatum; conditions: for EC50, half maximally effective amount to inhibit DA clearance (T80) / Emax, maximal inhibition of DA clearance (percent increase in T80): 2 min post-intrastriatal application; for Emax, maximal inhibition of DA clearance (percent increase in T80): 4-parameter logistic fit; for percent change in T20-60 value from baseline / percent change in peak amplitude of DA signal from baseline: dorsal striatum, 2 minutes following administration, mean and SEM; for Effect on DA clearance time (T80): intrastriatal application, ethanol ~0.5-10 mM, cocaine 1-10 µM at recording site, 2 min after drug
OCT3 = tested on: OCT3; set-up: method as in PMID 29773909, PMID 16581093; conditions: at concentrations lower than 100 µM; cited from earlier work
OCT3+/+ and OCT3-/- mice [4] = experiment: Sensitization of locomotor activity during CPP conditioning sessions; type: in vivo; conditions: for Locomotor sensitization, first vs. 4th session Mean Difference: sexes pooled, ethanol 1 g/kg and/or cocaine […]
hSERT = hSERT (Homo sapiens, UniProt P31645); conditions: 10 µM cocaine, 10 µM APP+
Chain of hSERT (P31645 whole entry): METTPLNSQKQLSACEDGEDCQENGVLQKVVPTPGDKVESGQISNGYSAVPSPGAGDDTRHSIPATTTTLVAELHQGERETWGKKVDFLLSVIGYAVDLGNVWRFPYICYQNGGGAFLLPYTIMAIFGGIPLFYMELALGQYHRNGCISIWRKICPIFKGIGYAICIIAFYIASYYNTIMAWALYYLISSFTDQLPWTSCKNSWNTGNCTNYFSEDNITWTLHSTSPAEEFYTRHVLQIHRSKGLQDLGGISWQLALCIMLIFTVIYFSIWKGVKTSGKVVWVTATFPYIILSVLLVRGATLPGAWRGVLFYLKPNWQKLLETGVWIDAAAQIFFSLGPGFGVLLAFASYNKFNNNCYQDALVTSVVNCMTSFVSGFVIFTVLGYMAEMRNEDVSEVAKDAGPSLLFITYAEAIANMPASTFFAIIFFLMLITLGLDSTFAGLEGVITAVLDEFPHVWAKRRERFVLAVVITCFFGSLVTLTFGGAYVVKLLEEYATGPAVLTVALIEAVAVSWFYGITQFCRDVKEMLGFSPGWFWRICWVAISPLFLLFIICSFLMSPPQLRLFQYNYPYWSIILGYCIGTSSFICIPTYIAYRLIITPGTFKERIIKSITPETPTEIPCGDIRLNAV

hOCT3 [5] = molecular target: T2, hOCT3; set-up: method as in PMID 29773909; conditions: previously shown; cited from earlier work
hDAT = hDAT (Homo sapiens, UniProt Q01959); conditions: 10 µM APP+
Chain of hDAT (Q01959 whole entry): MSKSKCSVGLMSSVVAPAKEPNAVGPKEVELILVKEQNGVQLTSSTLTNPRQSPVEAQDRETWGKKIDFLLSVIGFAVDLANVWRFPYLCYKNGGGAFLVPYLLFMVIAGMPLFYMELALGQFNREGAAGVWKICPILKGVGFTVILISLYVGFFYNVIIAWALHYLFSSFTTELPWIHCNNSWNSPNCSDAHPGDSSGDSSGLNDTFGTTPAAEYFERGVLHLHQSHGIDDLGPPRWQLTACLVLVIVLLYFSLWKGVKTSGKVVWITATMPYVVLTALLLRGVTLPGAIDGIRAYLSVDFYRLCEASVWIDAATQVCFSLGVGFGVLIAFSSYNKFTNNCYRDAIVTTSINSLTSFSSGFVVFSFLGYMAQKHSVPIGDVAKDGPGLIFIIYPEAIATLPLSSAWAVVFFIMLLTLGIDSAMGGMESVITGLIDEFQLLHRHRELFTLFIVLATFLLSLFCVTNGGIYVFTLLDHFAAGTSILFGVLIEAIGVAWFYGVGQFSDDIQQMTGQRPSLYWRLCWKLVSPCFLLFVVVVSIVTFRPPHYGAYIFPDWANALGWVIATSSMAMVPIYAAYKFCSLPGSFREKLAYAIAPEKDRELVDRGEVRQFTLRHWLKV

hOCT3 [6] = molecular target: T2, hOCT3; experiment: Real-time uptake of fluorescent substrate ASP+ in YFP-hOCT3 HEK293 cells; type: cell-based; conditions: 3 µM ASP+
[7] = rats, systemic administration of 1 mg/kg of ethanol (i.p.); cited from earlier work
OCT3+/+ and OCT3-/- mice [8] = experiment: Conditioned place preference (CPP); type: in vivo; conditions: ethanol 1 g/kg + cocaine […] i.p.
Procedure: In the same procedure, sensitization of cocaine-induced locomotion (in the presence and absence of ethanol) was measured. Loss of righting reflex (LORR) was assessed as described previously [36].
For CPP and sensitization to the locomotor stimulant effects of these drugs, mice were injected i.p. with physiological saline, saline + EtOH (100 mg/kg), saline + cocaine (3.2 mg/kg), or EtOH (100 mg/kg) + cocaine (3.2 mg/kg) immediately prior to assay. […] For LORR behavioral assays, mice were injected i.p. with a sedative dose of EtOH, at 3.2 g/kg (base weight per kilogram body weight).
CPP. Conditioned place preference (CPP) in rodents, which is often used to model abuse-related drug effects, is shown by a preference for an environment previously paired with a drug compared with an environment previously paired with vehicle^31, 32. Mice were exposed to an unbiased, one-compartment place-conditioning procedure, with sessions conducted once per day (see^12, 13). […]
This analysis was followed with separate two-way ANOVAs to further probe sex*genotype and treatment*genotype interactions. […] There were no interaction or main effects of sex on sensitization, so male and female data were pooled for further analysis, in which effects of genotype and days were assessed separately for each drug treatment using two-way repeated measures ANOVA’s. […]

NET [9] = molecular target: T3, NET; conditions: ethanol 3.4 nM up to 1 M, hippocampal homogenates
Procedure: as §1
Tissue Collection and Preparation: Mice were humanely euthanized by cervical dislocation and decapitated without anesthesia to collect fresh brain tissues without compromising transporter binding properties. Striatum from each mouse were placed in a round 50 ml polycarbonate tube (Nalge Nunc, Rochester, NY, USA) containing 30 mM sodium phosphate and 0.32 M sucrose for DAT binding as in Reith and Coffey^16. […] All tissues were homogenized at 26,000 RPM for 1 min with a Polytron tissue homogenizer (Brinkman Instruments, Westbury, NY, USA). […] The supernate was discarded, and the pellet re-suspended in 25 ml buffer on ice using a Potter Elvehjem 10 ml glass and teflon homogenizer. The homogenate was re-centrifuged for 10 min at 36,000 x g. […]
as §3

hNET = hNET (Homo sapiens, UniProt P23975)
Chain of hNET (P23975 whole entry): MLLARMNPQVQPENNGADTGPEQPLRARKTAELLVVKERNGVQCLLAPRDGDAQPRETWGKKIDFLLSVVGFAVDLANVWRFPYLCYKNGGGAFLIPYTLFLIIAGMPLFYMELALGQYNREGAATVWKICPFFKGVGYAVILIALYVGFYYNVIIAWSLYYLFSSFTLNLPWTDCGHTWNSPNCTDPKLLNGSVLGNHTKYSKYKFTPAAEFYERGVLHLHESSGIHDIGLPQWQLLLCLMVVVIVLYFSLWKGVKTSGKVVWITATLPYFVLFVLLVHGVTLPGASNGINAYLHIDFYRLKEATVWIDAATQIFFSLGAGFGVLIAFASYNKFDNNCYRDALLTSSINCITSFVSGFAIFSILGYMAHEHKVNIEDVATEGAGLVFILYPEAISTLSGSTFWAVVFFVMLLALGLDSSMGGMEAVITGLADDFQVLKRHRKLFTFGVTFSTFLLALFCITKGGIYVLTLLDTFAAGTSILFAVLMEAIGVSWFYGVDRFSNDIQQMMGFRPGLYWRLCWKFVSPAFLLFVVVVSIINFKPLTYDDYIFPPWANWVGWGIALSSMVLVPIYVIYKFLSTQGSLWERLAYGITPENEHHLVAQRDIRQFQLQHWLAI

SERT = SERT (Mus musculus, UniProt Q60857); conditions: ethanol 3.4 nM up to 1 M, hippocampal homogenates
Chain of SERT (Q60857 whole entry): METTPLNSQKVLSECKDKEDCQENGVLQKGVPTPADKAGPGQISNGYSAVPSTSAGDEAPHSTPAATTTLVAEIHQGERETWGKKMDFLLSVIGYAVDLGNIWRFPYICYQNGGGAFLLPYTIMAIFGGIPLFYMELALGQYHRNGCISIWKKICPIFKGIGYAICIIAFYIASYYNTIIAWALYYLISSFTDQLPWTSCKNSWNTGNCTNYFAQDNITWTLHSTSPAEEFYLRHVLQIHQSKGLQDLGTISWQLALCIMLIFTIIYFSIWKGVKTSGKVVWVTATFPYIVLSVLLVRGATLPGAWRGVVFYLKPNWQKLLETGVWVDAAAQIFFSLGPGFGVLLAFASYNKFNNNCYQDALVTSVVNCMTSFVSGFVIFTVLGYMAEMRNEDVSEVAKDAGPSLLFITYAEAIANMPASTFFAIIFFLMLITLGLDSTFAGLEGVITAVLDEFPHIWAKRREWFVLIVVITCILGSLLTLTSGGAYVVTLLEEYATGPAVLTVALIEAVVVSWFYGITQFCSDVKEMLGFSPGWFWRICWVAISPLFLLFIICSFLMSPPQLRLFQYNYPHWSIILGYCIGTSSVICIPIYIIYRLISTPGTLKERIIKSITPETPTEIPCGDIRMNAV
Procedure: as §1, §2
Radioligand binding to SERT was performed on hippocampal homogenates according to the procedure of D’Amato et al.^19. […]
as §3

T1 sequence (Q61327 whole entry): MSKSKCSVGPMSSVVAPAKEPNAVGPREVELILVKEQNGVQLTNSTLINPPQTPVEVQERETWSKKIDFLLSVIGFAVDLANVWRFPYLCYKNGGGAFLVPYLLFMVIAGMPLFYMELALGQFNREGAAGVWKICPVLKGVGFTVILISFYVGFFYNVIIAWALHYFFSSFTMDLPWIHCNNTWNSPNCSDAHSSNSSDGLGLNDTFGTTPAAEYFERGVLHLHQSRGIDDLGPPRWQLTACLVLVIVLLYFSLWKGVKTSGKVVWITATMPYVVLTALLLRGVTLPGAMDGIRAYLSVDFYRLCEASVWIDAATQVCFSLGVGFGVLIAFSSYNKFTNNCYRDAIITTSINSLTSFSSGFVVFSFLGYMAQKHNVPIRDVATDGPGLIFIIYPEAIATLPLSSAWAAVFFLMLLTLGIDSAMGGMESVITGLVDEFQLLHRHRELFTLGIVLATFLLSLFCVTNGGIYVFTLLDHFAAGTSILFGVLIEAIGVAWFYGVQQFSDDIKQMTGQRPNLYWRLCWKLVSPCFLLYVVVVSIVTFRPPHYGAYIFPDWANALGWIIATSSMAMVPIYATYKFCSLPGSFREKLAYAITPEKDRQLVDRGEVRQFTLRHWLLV

Fc1ccc(C(OCCN2CCN(CCCc3ccccc3)CC2)c2ccc(F)cc2)cc1 [GBR12909]
Ki (DAT; 2.7 nM [3H]WIN35,428, striatal homogenates, mean (95% CI), N = 3 mice, read-out: Ki for displacement of [3H]WIN35,428 binding to DAT): 0.001 µM

C[n+]1ccc(-c2ccccc2)cc1 [[^3H]MPP^+, 1-methyl-4-phenylpyridinium]
Km (hOCT3 [1]; used to determine Ki values, read-out: Km for uptake in OCT3 over-expressing cells): 1000 µM

CNCCC(Oc1ccccc1OC)c1ccccc1 (stereo not drawn) [[^3H]Nisoxetine]
Kd (NET [2]): 0.0025 µM

COC(=O)[C@H]1[C@@H](c2ccc(F)cc2)C[C@@H]2CC[C@H]1N2C [[^3H]WIN35,428]
Kd (DAT; saturation assays on striatum of 5 C57BL/6J mice, used to calculate Ki, read-out: Kd of hot ligand at DAT): 0.0078 µM

COC(=O)[C@H]1[C@@H](OC(=O)c2ccccc2)C[C@@H]2CC[C@H]1N2C [cocaine]
EC50, half maximally effective amount to inhibit DA clearance (T80) ([3]; OCT3+/+ mice): 35 ± 9 pmol
Emax, maximal inhibition of DA clearance (percent increase in T80) ([3]; OCT3+/+ mice): 150 ± 13%
percent change in T20-60 value from baseline ([3]; OCT3+/+ mice): 140 ± 8 (16)**/^† percent
percent change in peak amplitude of DA signal from baseline ([3]; OCT3+/+ mice): 109 ± 14 (16) percent
Effect on DA clearance time (T80) ([3]; OCT3+/+ mice): inhibited DA clearance
EC50, half maximally effective amount to inhibit DA clearance (T80) ([3]; OCT3-/- mice): 23 ± 16 pmol
Emax, maximal inhibition of DA clearance (percent increase in T80) ([3]; OCT3-/- mice): 154 ± 15%
percent change in T20-60 value from baseline ([3]; OCT3-/- mice): 148 ± 14 (15) percent
percent change in peak amplitude of DA signal from baseline ([3]; OCT3-/- mice): 106 ± 16 (15) percent
Effect on DA clearance time (T80) ([3]; OCT3-/- mice): inhibited DA clearance
Activity at OCT3 (OCT3): does not have activity at OCT3
Locomotor sensitization, first vs. 4th session Mean Difference (OCT3+/+ and OCT3-/- mice [4]; OCT3+/+ mice): -9.84
Locomotor sensitization, first vs. 4th session Mean Difference (OCT3+/+ and OCT3-/- mice [4]; OCT3-/- mice): -31.91
Block of APP+ uptake into hSERT HEK293 cells (hSERT): blocked APP^+ uptake
Block of fluorescent substrate uptake in hOCT3 HEK293 cells (hOCT3 [5]): does not block fluorescent substrate uptake
Block of APP+ uptake into hDAT HEK293 cells (hDAT; 10 µM cocaine): blocked APP^+ uptake

C[C@]12C[C@H](O)[C@H]3[C@@H](CCC4=CC(=O)CC[C@@]43C)[C@@H]1CC[C@@H]2C(=O)CO [corticosterone]
Block of ASP+ uptake (hOCT3 [6]; 10 µM corticosterone): fully blocked uptake of ASP^+

CCO [ethanol]
percent change in T20-60 value from baseline ([3]; OCT3+/+ mice): 123 ± 8 (14) percent
percent change in peak amplitude of DA signal from baseline ([3]; OCT3+/+ mice): 80 ± 8 (14) percent
Effect on DA clearance time (T80) ([3]; OCT3+/+ mice): increased T80 DA clearance time
percent change in T20-60 value from baseline ([3]; OCT3-/- mice): 100 ± 6 (17)^###/$$ percent
percent change in peak amplitude of DA signal from baseline ([3]; OCT3-/- mice): 70 ± 8 (17) percent
Effect on DA clearance time (T80) ([3]; OCT3-/- mice): did not inhibit DA clearance
Displacement of [3H]WIN35,428 binding to DAT (DAT; ethanol 3.4 nM up to 1 M, striatal homogenates): did not displace
Dialysate ethanol levels in the nucleus accumbens [7]: approximately 6 mM
Potentiation of CPP for cocaine by ethanol (OCT3+/+ and OCT3-/- mice [8]): did not potentiate CPP for cocaine
Locomotor sensitization, first vs. 4th session Mean Difference (OCT3+/+ and OCT3-/- mice [4]; OCT3+/+ mice): −12.01
Sensitization of locomotor activity (OCT3+/+ and OCT3-/- mice [4]; ethanol alone, OCT3+/+ and OCT3-/- mice): no ethanol-induced sensitization
Displacement of [3H]nisoxetine binding to NET (NET [9]): did not displace
Inhibition of ASP+ uptake (hOCT3 [6]; 30 mM ethanol, A.U.C. T80-150 s): ~ 50%
Block of ASP+ uptake (hOCT3 [6]; 100 mM ethanol): fully blocked uptake of ASP^+
Inhibition of APP+ uptake into hNET HEK293 cells (hNET): only modestly inhibited uptake
Displacement of [3H]citalopram binding to SERT (SERT): did not displace
Inhibition of APP+ uptake into hDAT HEK293 cells (hDAT; highest ethanol concentration tested (100 mM)): only modestly inhibited uptake
Ki (hOCT3 [1]; hOCT3 HEK293 cells, N = 5 replicate assays in triplicate): 4200 ± 200 µM
